Data reported in the supplement of paper PMC10307832.

How the values were obtained:
Experiment in all cases: relative viability (nuclei count vs DMSO), 5 days (fraction); higher = more cells survive
[1] = compound: COc1ncc(-c2ccc3nccc(-c4ccnnc4)c3c2)cc1NS(=O)(=O)c1ccc(F)cc1F [Omipalisib]
Outline: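 Five library-drug doses, separated by factors of √10, were pinned into 1536-well plates holding lung cancer cell lines after an overnight stay at 37 °C. Cells were fixed, permeabilised and Hoechst-stained in one step after 5 days without medium change, then imaged at 4×. Viability compares treated-well with vehicle-well nuclei, counted in MetaXpress, as a median across plates. Passing plates had control CV below 25% and at least one doubling.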

[2] = compound: COc1ncc(-c2ccc3nccc(-c4ccnnc4)c3c2)cc1NS(=O)(=O)c1ccc(F)cc1F [Omipalisib] + CC(=O)Nc1cccc(-n2c(=O)n(C3CC3)c(=O)c3c(Nc4ccc(I)cc4F)n(C)c(=O)c(C)c32)c1 [Trametinib] (partner 0.02 µM)
Outline: (§1)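 Lung cancer cell lines were seeded in 1536-well plates and dosed by pin tool the next day, with either a single drug or a fixed anchor-drug dose combined with five library-drug doses (not always all listed) spaced in √10 steps. Five days later, one step fixed the cells and stained their nuclei (final 0.05% Triton X-100, 1% formaldehyde, 1 ug/ml Hoechst), and nuclei were counted on 4× images. Relative viability is the nuclei count in treated wells divided by the count in vehicle wells, and each value is the median of duplicate plates.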

[3] = compound: COc1ncc(-c2ccc3nccc(-c4ccnnc4)c3c2)cc1NS(=O)(=O)c1ccc(F)cc1F [Omipalisib] + CC(=O)c1c(C)c2cnc(Nc3ccc(N4CCNCC4)cn3)nc2n(C2CCCC2)c1=O [Palbociclib] (partner 0.5 µM)
Outline: as §1

[4] = compound: COc1ncc(-c2ccc3nccc(-c4ccnnc4)c3c2)cc1NS(=O)(=O)c1ccc(F)cc1F [Omipalisib] + COc1cc2c(Oc3ccc(NC(=O)C4(C(=O)Nc5ccc(F)cc5)CC4)cc3F)ccnc2cc1OCCCN1CCOCC1 [Foretinib] (partner 0.25 µM)
Outline: as §1

[5] = compound: COc1ncc(-c2ccc3nccc(-c4ccnnc4)c3c2)cc1NS(=O)(=O)c1ccc(F)cc1F [Omipalisib] + C[C@@H](Oc1cc(-c2cnn(C3CCNCC3)c2)cnc1N)c1c(Cl)ccc(F)c1Cl [Crizotinib] (partner 1 µM)
Outline: as §1

[6] = compound: COc1ncc(-c2ccc3nccc(-c4ccnnc4)c3c2)cc1NS(=O)(=O)c1ccc(F)cc1F [Omipalisib] + Cc1cc(Nc2cc(N3CCN(C)CC3)nc(Sc3ccc(NC(=O)C4CC4)cc3)n2)n[nH]1 [Tozasertib] (partner 0.1 µM)
Outline: as §1

Cell Line	relative viability ([1]; 0.0003 µM)	relative viability ([1]; 0.003 µM)	relative viability ([1]; 0.03 µM)	relative viability ([2]; first compound 0.0003 µM)	relative viability ([2]; first compound 0.003 µM)	relative viability ([2]; first compound 0.03 µM)	relative viability ([3]; first compound 0.0003 µM)	relative viability ([3]; first compound 0.003 µM)	relative viability ([3]; first compound 0.03 µM)	relative viability ([4]; first compound 0.0003 µM)	relative viability ([4]; first compound 0.003 µM)	relative viability ([4]; first compound 0.03 µM)	relative viability ([5]; first compound 0.0003 µM)	relative viability ([5]; first compound 0.003 µM)	relative viability ([5]; first compound 0.03 µM)	relative viability ([6]; first compound 0.0003 µM)	relative viability ([6]; first compound 0.003 µM)	relative viability ([6]; first compound 0.03 µM)
NCI-H1944	0.856	0.646	0.371	0.355	0.246	0.197	0.264	0.25	0.169	0.811	0.457	0.31	1	0.858	0.439	0.237	0.217	0.192
HCC-366	0.938	0.853	0.366	0.245	0.152	0.0615	0.329	0.202	0.0493	0.849	0.772	0.189	0.365	0.0929	0.041	0.113	0.0977	0.0346
NCI-H2009	1.06	1.02	0.755	0.278	0.16	0.184	0.204	0.176	0.179	1.15	1.07	0.922	0.989	0.923	0.742	0.796	0.674	0.607
NCI-H460	1	0.787	0.334	0.0973	0.0781	0.0544	0.147	0.0934	0.0384	1.04	1.01	0.347	0.772	0.589	0.132	0.476	0.393	0.0957
